According to PubChem BioAssay (NCI):
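Compound exposure: 48 hours, 5 concentrations, 96-well plates. At the TGI there is no net growth.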

How the values were obtained:
Assay in all cases: NCI tumour cell line growth inhibition, 48 h
[1] = tested on: SF-539 CNS
[2] = tested on: HCC-2998 colon
[3] = tested on: HT29 colon
[4] = tested on: SK-MEL-5 melanoma
[5] = tested on: TK-10 renal
[6] = tested on: RXF-631 renal
[7] = tested on: NCI-H460 lung
[8] = tested on: OVCAR-3 ovarian
[9] = tested on: SK-MEL-2 melanoma
[10] = tested on: RXF 393 renal
[11] = tested on: EKVX NSCLC
[12] = tested on: K-562 leukemia
[13] = tested on: M19-MEL melanoma
[14] = tested on: HL-60(TB) leukemia
[15] = tested on: A549 NSCLC
[16] = tested on: IGROV1 ovarian
[17] = tested on: SF-268 CNS
[18] = tested on: CCRF-CEM leukemia
[19] = tested on: SF-295 CNS
[20] = tested on: SK-OV-3 ovarian
[21] = tested on: DLD-1 colon
[22] = tested on: NCI-H23 lung
[23] = tested on: DMS 114 small cell lung
[24] = tested on: SW-620 colon
[25] = tested on: LXFL 529 NSCLC
[26] = tested on: UO-31 renal
[27] = tested on: SNB-19 CNS
[28] = tested on: COLO 205 colon
[29] = tested on: RPMI-8226 leukemia
[30] = tested on: CAKI-1 renal
[31] = tested on: A498 renal
[32] = tested on: NCI-H226 lung
[33] = tested on: XF 498 CNS
[34] = tested on: UACC-62 melanoma
[35] = tested on: OVCAR-5 ovarian
[36] = tested on: HCT-116 colon
[37] = tested on: OVCAR-8 ovarian
[38] = tested on: UACC-257 melanoma
[39] = tested on: SNB-75 CNS
[40] = tested on: SNB-78 CNS
[41] = tested on: MOLT-4 leukemia
[42] = tested on: HOP-92 NSCLC
[43] = tested on: SN12C renal
[44] = tested on: HCT-15 colon
[45] = tested on: 786-0 renal
[46] = tested on: OVCAR-4 ovarian
[47] = tested on: ACHN renal
[48] = tested on: LOX IMVI melanoma
[49] = tested on: SK-MEL-28 melanoma
[50] = tested on: HOP-18 NSCLC
[51] = tested on: KM12 colon
[52] = tested on: U251 CNS
[53] = tested on: MALME-3M melanoma
[54] = tested on: M14 melanoma
[55] = tested on: DMS 273 small cell lung
[56] = tested on: KM20L2 colon
[57] = tested on: NCI-H522 lung
[58] = tested on: HOP-62 NSCLC
[59] = tested on: MCF7 breast
[60] = tested on: P388/ADR leukemia
[61] = tested on: P388 leukemia
[62] = tested on: NCI/ADR-RES ovarian
[63] = tested on: SN12K1 renal
[64] = tested on: SR leukemia

COc1ccccc1NC(=O)C1=C(C)NC(C)=C(C(=O)Nc2ccccc2OC)C1c1cccc2ccccc12
TGI [1]: > 100 µM | TGI [2]: > 100 µM | TGI [3]: > 100 µM | TGI [4]: > 100 µM | TGI [5]: > 100 µM | TGI [6]: > 100 µM | TGI [7]: > 100 µM | TGI [8]: > 100 µM | TGI [9]: > 100 µM | TGI [10]: > 100 µM | TGI [11]: > 100 µM | TGI [12]: > 100 µM | TGI [13]: > 100 µM | TGI [14]: > 100 µM | TGI [15]: > 100 µM | TGI [16]: > 100 µM | TGI [17]: > 100 µM | TGI [18]: > 100 µM | TGI [19]: > 100 µM | TGI [20]: > 100 µM | TGI [21]: > 100 µM | TGI [22]: > 100 µM | TGI [23]: > 100 µM | TGI [24]: > 100 µM | TGI [25]: > 100 µM | TGI [26]: > 100 µM | TGI [27]: > 100 µM | TGI [28]: > 100 µM | TGI [29]: > 100 µM | TGI [30]: > 100 µM | TGI [31]: > 100 µM | TGI [32]: > 100 µM | TGI [33]: > 100 µM | TGI [34]: > 100 µM | TGI [35]: > 100 µM | TGI [36]: > 100 µM | TGI [37]: > 100 µM | TGI [38]: > 100 µM | TGI [39]: 98.8 µM | TGI [40]: 62.5 µM | TGI [41]: > 100 µM | TGI [42]: 7.87 µM | TGI [43]: > 100 µM | TGI [44]: > 100 µM | TGI [45]: > 100 µM | TGI [46]: 41.5 µM | TGI [47]: > 100 µM | TGI [48]: > 100 µM | TGI [49]: > 100 µM | TGI [50]: > 100 µM | TGI [51]: > 100 µM | TGI [52]: > 100 µM | TGI [53]: > 100 µM | TGI [54]: > 100 µM | TGI [55]: > 100 µM | TGI [56]: > 100 µM

Cc1ccc(C#CS(=O)(=O)C(F)(F)F)cc1
TGI [1]: > 100 µM | TGI [2]: > 100 µM | TGI [3]: > 100 µM | TGI [4]: > 100 µM | TGI [7]: > 100 µM | TGI [8]: > 100 µM | TGI [9]: > 100 µM | TGI [10]: > 100 µM | TGI [57]: > 100 µM | TGI [11]: > 100 µM | TGI [12]: > 100 µM | TGI [13]: > 100 µM | TGI [14]: > 31.6 µM | TGI [15]: > 100 µM | TGI [16]: > 100 µM | TGI [17]: > 100 µM | TGI [18]: > 100 µM | TGI [19]: > 31.6 µM | TGI [20]: > 100 µM | TGI [58]: > 100 µM | TGI [21]: > 100 µM | TGI [22]: > 100 µM | TGI [23]: > 100 µM | TGI [24]: > 100 µM | TGI [59]: > 100 µM | TGI [26]: > 100 µM | TGI [60]: > 100 µM | TGI [27]: > 100 µM | TGI [28]: > 100 µM | TGI [29]: > 100 µM | TGI [31]: > 100 µM | TGI [32]: > 100 µM | TGI [33]: > 100 µM | TGI [34]: > 100 µM | TGI [35]: > 100 µM | TGI [36]: > 100 µM | TGI [37]: > 100 µM | TGI [38]: > 100 µM | TGI [39]: > 100 µM | TGI [40]: > 100 µM | TGI [41]: > 100 µM | TGI [42]: > 100 µM | TGI [43]: > 100 µM | TGI [44]: > 100 µM | TGI [46]: > 100 µM | TGI [48]: > 31.6 µM | TGI [49]: > 100 µM | TGI [50]: > 100 µM | TGI [51]: > 100 µM | TGI [61]: > 100 µM | TGI [62]: > 100 µM | TGI [52]: > 100 µM | TGI [53]: > 100 µM | TGI [63]: > 100 µM | TGI [55]: > 100 µM | TGI [56]: > 100 µM

O=C1c2cccc3c(Cl)ccc(c23)C(=O)N1CCCN1CCN(CCCN2C(=O)c3cccc4c(Cl)ccc(c34)C2=O)CC1
TGI [1]: > 100 µM | TGI [2]: > 100 µM | TGI [3]: > 100 µM | TGI [4]: > 100 µM | TGI [5]: > 100 µM | TGI [6]: > 100 µM | TGI [7]: > 100 µM | TGI [8]: > 100 µM | TGI [9]: > 100 µM | TGI [11]: > 100 µM | TGI [12]: > 100 µM | TGI [14]: > 100 µM | TGI [15]: > 100 µM | TGI [16]: > 100 µM | TGI [18]: > 100 µM | TGI [19]: > 100 µM | TGI [20]: > 100 µM | TGI [58]: > 100 µM | TGI [21]: > 100 µM | TGI [22]: > 100 µM | TGI [23]: > 100 µM | TGI [24]: > 100 µM | TGI [25]: > 100 µM | TGI [26]: > 100 µM | TGI [27]: > 100 µM | TGI [28]: > 100 µM | TGI [29]: > 100 µM | TGI [30]: > 100 µM | TGI [31]: > 100 µM | TGI [32]: > 100 µM | TGI [33]: > 100 µM | TGI [34]: > 100 µM | TGI [35]: > 100 µM | TGI [36]: > 100 µM | TGI [37]: > 100 µM | TGI [38]: > 100 µM | TGI [39]: > 100 µM | TGI [40]: > 100 µM | TGI [41]: > 100 µM | TGI [42]: > 100 µM | TGI [43]: > 100 µM | TGI [44]: > 100 µM | TGI [45]: > 100 µM | TGI [46]: > 100 µM | TGI [47]: > 100 µM | TGI [48]: > 100 µM | TGI [50]: > 100 µM | TGI [51]: > 100 µM | TGI [52]: > 100 µM | TGI [53]: > 100 µM | TGI [54]: > 100 µM | TGI [55]: > 100 µM | TGI [56]: > 100 µM

O=C1CCNC(=O)NC1
TGI [3]: > 100 µM | TGI [4]: > 100 µM | TGI [5]: > 100 µM | TGI [6]: > 100 µM | TGI [7]: > 100 µM | TGI [8]: > 100 µM | TGI [9]: > 100 µM | TGI [10]: > 100 µM | TGI [57]: > 100 µM | TGI [11]: > 100 µM | TGI [12]: > 100 µM | TGI [13]: > 100 µM | TGI [14]: > 100 µM | TGI [15]: > 100 µM | TGI [16]: > 100 µM | TGI [17]: > 100 µM | TGI [18]: > 100 µM | TGI [19]: > 100 µM | TGI [20]: > 100 µM | TGI [58]: > 100 µM | TGI [21]: > 100 µM | TGI [23]: > 100 µM | TGI [24]: > 100 µM | TGI [25]: > 100 µM | TGI [26]: > 100 µM | TGI [27]: > 100 µM | TGI [28]: > 100 µM | TGI [29]: > 100 µM | TGI [64]: > 100 µM | TGI [30]: > 100 µM | TGI [31]: > 100 µM | TGI [32]: > 100 µM | TGI [33]: > 100 µM | TGI [34]: > 100 µM | TGI [35]: > 100 µM | TGI [36]: > 100 µM | TGI [37]: > 100 µM | TGI [38]: > 100 µM | TGI [39]: > 100 µM | TGI [40]: > 100 µM | TGI [41]: 56.6 µM | TGI [42]: > 100 µM | TGI [43]: > 100 µM | TGI [44]: > 100 µM | TGI [45]: > 100 µM | TGI [46]: > 100 µM | TGI [47]: > 100 µM | TGI [48]: > 100 µM | TGI [49]: > 100 µM | TGI [50]: > 100 µM | TGI [51]: > 100 µM | TGI [52]: > 100 µM | TGI [53]: > 100 µM | TGI [54]: > 100 µM | TGI [55]: > 100 µM | TGI [56]: > 100 µM
